Measurements reported in ChEMBL document CHEMBL1201862, “PubChem BioAssay data set” (2004).
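Following 48 hours of exposure in 96-well plates, responses at five concentrations were used to interpolate endpoints linearly. The concentration for 50% growth inhibition is given as GI50.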 Activity calls are given as the source filed them. Cut-off read from the data, not from the text of the source: active = GI50 up to about 1.1 µM and inactive = higher.

What was measured:
Assay in all cases: inhibition of tumour cell growth, NCI panel, 48 h
[1] = test system: SK-MEL-5
[2] = test system: OVCAR-4
[3] = test system: A498
[4] = test system: SK-OV-3
[5] = test system: UACC-62
[6] = test system: SK-MEL-2
[7] = test system: EKVX
[8] = test system: HCC 2998
[9] = test system: MDA-N
[10] = test system: MOLT-4
[11] = test system: Hs-578T
[12] = test system: RXF 393
[13] = test system: SK-MEL-28
[14] = test system: CCRF-CEM
[15] = test system: M14
[16] = test system: NCI-H460
[17] = test system: U-251
[18] = test system: NCI/ADR-RES
[19] = test system: T47D
[20] = test system: KM12

Row | Structure (SMILES) | GI50 [1] | GI50 [2] | GI50 [3] | GI50 [4] | GI50 [5] | GI50 [6] | GI50 [7] | GI50 [8] | GI50 [9] | GI50 [10] | GI50 [11] | GI50 [12] | GI50 [13] | GI50 [14] | GI50 [15] | GI50 [16] | GI50 [17] | GI50 [18] | GI50 [19] | GI50 [20]
1 | N[C@H](C(=O)O)[C@@H]1CC(Cl)=NO1 [ACIVICIN] | 1.99 µM (inactive) | 14.6 µM (inactive) | 6.84 µM (inactive) | 12.6 µM (inactive) | 2.79 µM (inactive) | 4.61 µM (inactive) | 2.54 µM (inactive) | 8.99 µM (inactive) | 4.06 µM (inactive) | 2.14 µM (inactive) | 3.62 µM (inactive) | 7.62 µM (inactive) | 4.4 µM (inactive) | 1.19 µM (inactive) | 2.9 µM (inactive) | 0.452 µM (active) | 2.21 µM (inactive) | 4.44 µM (inactive) | 7.73 µM (inactive) | 
2 | CN(CCc1ccccn1)C(=S)N/N=C/c1ccccn1 | 0.11 µM (active) | 0.112 µM (active) | 0.0194 µM (active) | 0.376 µM (active) | 0.195 µM (active) | 0.0168 µM (active) | 0.102 µM (active) | 0.23 µM (active) | 0.551 µM (active) | < 0.01 µM (active) | 20 µM (inactive) | 0.126 µM (active) | 0.442 µM (active) | < 0.01 µM (active) | < 0.0226 µM (active) | 0.299 µM (active) |  | < 0.0201 µM (active) | < 0.01 µM (active) | 0.0719 µM (active)
3 | COC(=O)CNC(=O)/C=C/[C@H](O[Si](C)(C)C(C)(C)C)[C@H](/C=C/C(=O)NCC(=O)OC)O[Si](C)(C)C(C)(C)C | > 25 µM (inactive) | > 25 µM (inactive) | > 25 µM (inactive) | > 25 µM (inactive) | > 25 µM (inactive) | > 25 µM (inactive) | > 25 µM (inactive) | > 25 µM (inactive) | > 25 µM (inactive) | > 25 µM (inactive) | > 25 µM (inactive) | > 25 µM (inactive) | > 25 µM (inactive) | > 25 µM (inactive) |  | > 25 µM (inactive) | > 25 µM (inactive) | > 25 µM (inactive) | > 25 µM (inactive) | > 25 µM (inactive)
4 | O=C(/C=C/c1ccccc1)OCC1=C[C@@H](O)[C@@H]2C=CO[C@@H](OC3OC(CO)C(O)C(O)C3O)[C@H]12 (stereo partly drawn) | > 100 µM (inactive) | 67.6 µM (inactive) | > 100 µM (inactive) | > 100 µM (inactive) | > 100 µM (inactive) | > 100 µM (inactive) | > 100 µM (inactive) | > 100 µM (inactive) | > 100 µM (inactive) | > 100 µM (inactive) | > 100 µM (inactive) | > 100 µM (inactive) | > 100 µM (inactive) | > 100 µM (inactive) | > 100 µM (inactive) |  | > 100 µM (inactive) | > 100 µM (inactive) | > 100 µM (inactive) | > 100 µM (inactive)
5 | CC1CC(=O)N(N(C)C)C(C#N)(C#N)C1(C#N)C#N (stereo not drawn) | 21.9 µM (inactive) | 18.3 µM (inactive) | 17.8 µM (inactive) | 29.5 µM (inactive) | 18.3 µM (inactive) | 25.5 µM (inactive) | 23 µM (inactive) | 18.5 µM (inactive) | 18.1 µM (inactive) | 1.87 µM (inactive) | 23.2 µM (inactive) | 10.6 µM (inactive) | 16.1 µM (inactive) | 0.638 µM (active) | 15.8 µM (inactive) |  | 20.9 µM (inactive) | 21.7 µM (inactive) | 15.5 µM (inactive) | > 44.1 µM (inactive)
6 | COC(=O)C1=C(O)C(C(=O)OC)[C@]2(O)[C@H](C(=O)OC)[C@H]1C[C@@H](c1ccc(O)cc1)[C@H]2C(=O)OC (stereo partly drawn) | 37.3 µM (inactive) | 36.4 µM (inactive) | 33.3 µM (inactive) | 26.5 µM (inactive) | 31.3 µM (inactive) |  | 32.3 µM (inactive) | 19.9 µM (inactive) | 20.1 µM (inactive) | 30.3 µM (inactive) | 26.1 µM (inactive) | 15.8 µM (inactive) | 41.8 µM (inactive) | 54 µM (inactive) | 25.4 µM (inactive) | 23.7 µM (inactive) | 18.3 µM (inactive) | 30.1 µM (inactive) | 23.9 µM (inactive) | 21.8 µM (inactive)
7 | O=C1CSC2(CC(/C=C/c3ccccc3O)=NN2c2cccc(S(=O)(=O)O)c2)N1c1nc2ccccc2s1 (stereo not drawn) | 25.9 µM (inactive) | 22 µM (inactive) | 42.9 µM (inactive) |  | 29.4 µM (inactive) | 34 µM (inactive) | 48.1 µM (inactive) | 21.9 µM (inactive) | 38.3 µM (inactive) | 20.3 µM (inactive) | 47.3 µM (inactive) | 54.6 µM (inactive) | 56.5 µM (inactive) | 14.6 µM (inactive) | 59.4 µM (inactive) | 34.1 µM (inactive) | 33.9 µM (inactive) | 26.7 µM (inactive) | 19.6 µM (inactive) | 30.6 µM (inactive)
8 | O=C1c2c(ccc3c2CCCC3)CC12Cc1ccc3c(c1C2=O)CCCC3 | > 100 µM (inactive) | > 100 µM (inactive) | 89.1 µM (inactive) | > 100 µM (inactive) |  | > 100 µM (inactive) | > 100 µM (inactive) | > 100 µM (inactive) | > 100 µM (inactive) | > 100 µM (inactive) | > 100 µM (inactive) | > 100 µM (inactive) | > 100 µM (inactive) | > 100 µM (inactive) | > 100 µM (inactive) | > 100 µM (inactive) | 56.9 µM (inactive) | > 100 µM (inactive) | > 100 µM (inactive) | 
9 | CNC1(C(=O)O)CC1 | > 100 µM (inactive) | > 100 µM (inactive) | > 100 µM (inactive) |  | 69.2 µM (inactive) |  | > 100 µM (inactive) | > 100 µM (inactive) | > 100 µM (inactive) | > 100 µM (inactive) | > 100 µM (inactive) | > 100 µM (inactive) | > 100 µM (inactive) | > 100 µM (inactive) | > 100 µM (inactive) | > 100 µM (inactive) | > 100 µM (inactive) | > 100 µM (inactive) | 87.5 µM (inactive) | > 100 µM (inactive)
10 | COC(=O)CCC(C)[C@H]1CCC2C3C(C[C@H](OC(C)=O)[C@@]21C)[C@@]1(C)CCC2(C[C@H]1C[C@H]3OC(C)=O)OOC1(CCCCC1)OO2 (stereo partly drawn) | 19.4 µM (inactive) | 15.8 µM (inactive) | > 100 µM (inactive) | 54.5 µM (inactive) |  | 52.7 µM (inactive) | 4.04 µM (inactive) | 28.3 µM (inactive) | 33.9 µM (inactive) | 17.2 µM (inactive) | 12 µM (inactive) | 38.7 µM (inactive) | > 100 µM (inactive) | 4.27 µM (inactive) | 15.5 µM (inactive) | 10.8 µM (inactive) | 12.7 µM (inactive) | 49.2 µM (inactive) | 65.9 µM (inactive) | 23.6 µM (inactive)
11 | CCOP(=O)(OCC)c1cc2cc(O)ccc2oc1=O | > 100 µM (inactive) | > 100 µM (inactive) | > 100 µM (inactive) | > 100 µM (inactive) | > 100 µM (inactive) |  | > 100 µM (inactive) | > 100 µM (inactive) | > 100 µM (inactive) |  | > 100 µM (inactive) | > 100 µM (inactive) | > 100 µM (inactive) | > 100 µM (inactive) | > 100 µM (inactive) | > 100 µM (inactive) | > 100 µM (inactive) | > 100 µM (inactive) | > 100 µM (inactive) | > 100 µM (inactive)
12 | CC(=O)c1csc2c1C(=O)c1ccccc1C2=O | 0.18 µM (active) | 6.04 µM (inactive) | 46.7 µM (inactive) | 38.1 µM (inactive) | 1.93 µM (inactive) | 3.06 µM (inactive) | 5.78 µM (inactive) | 1.75 µM (inactive) | 1.22 µM (inactive) |  | 2.43 µM (inactive) | 10.2 µM (inactive) | 1.92 µM (inactive) | 1.56 µM (inactive) | 1.07 µM (active) | 1.48 µM (inactive) | 2.88 µM (inactive) | 2.88 µM (inactive) | 21.7 µM (inactive) | 1.53 µM (inactive)
13 | CN(C)c1ccc(NN=C2SC(=N\c3ccccc3)/C(=N/c3ccccc3)S2)cc1 | 19.8 µM (inactive) | 30.2 µM (inactive) | 50 µM (inactive) | > 100 µM (inactive) | 9.38 µM (inactive) | 13.6 µM (inactive) | 12.8 µM (inactive) | 26.6 µM (inactive) | 20.3 µM (inactive) | 47.2 µM (inactive) | 57.4 µM (inactive) | 10 µM (inactive) | > 100 µM (inactive) | 5.2 µM (inactive) |  | 13 µM (inactive) | > 100 µM (inactive) | 67.8 µM (inactive) | 12.3 µM (inactive) | 18.2 µM (inactive)
14 | CCN(CCCl)c1cc(CN(C)C)cc(NC(=O)C23CCC(C(=O)Nc4cc(CN(C)C)cc(N(CC)CCCl)c4)(CC2)CC3)c1 | 1.75 µM (inactive) | 1.4 µM (inactive) | 6.44 µM (inactive) | 0.372 µM (active) | 1.14 µM (inactive) | 2.39 µM (inactive) |  | 1.33 µM (inactive) | 1.12 µM (inactive) | < 0.01 µM (active) | 0.46 µM (active) | 1.37 µM (inactive) | 1.75 µM (inactive) | < 0.01 µM (active) | 2.97 µM (inactive) | 0.0687 µM (active) | 0.764 µM (active) | 29.9 µM (inactive) | 3.03 µM (inactive) | 1.67 µM (inactive)
